Data reported in publication PMC11470524, “A venom peptide-induced NaV channel modulation mechanism involving the interplay between fixed channel charges and ionic gradients” (The Journal of Biological Chemistry, 2024).
Where two headings read alike, the source gives them in different places. Where no end group is shown, it is not given here.

How the values were obtained:
NaV channels = details: cited from earlier work
human NaV1.7 channel [1] = biological target: T1, human NaV1.7 channel (Homo sapiens, UniProt Q15858); experiment: Cumulative concentration-response, persistent (non-inactivating) current I40ms/Ipeak, NaV1.7; type: cell-based; details: NaV1.7, HEK293, ratio of current at 40 ms to peak current, mean ± SD
T1 sequence (Q15858 whole entry): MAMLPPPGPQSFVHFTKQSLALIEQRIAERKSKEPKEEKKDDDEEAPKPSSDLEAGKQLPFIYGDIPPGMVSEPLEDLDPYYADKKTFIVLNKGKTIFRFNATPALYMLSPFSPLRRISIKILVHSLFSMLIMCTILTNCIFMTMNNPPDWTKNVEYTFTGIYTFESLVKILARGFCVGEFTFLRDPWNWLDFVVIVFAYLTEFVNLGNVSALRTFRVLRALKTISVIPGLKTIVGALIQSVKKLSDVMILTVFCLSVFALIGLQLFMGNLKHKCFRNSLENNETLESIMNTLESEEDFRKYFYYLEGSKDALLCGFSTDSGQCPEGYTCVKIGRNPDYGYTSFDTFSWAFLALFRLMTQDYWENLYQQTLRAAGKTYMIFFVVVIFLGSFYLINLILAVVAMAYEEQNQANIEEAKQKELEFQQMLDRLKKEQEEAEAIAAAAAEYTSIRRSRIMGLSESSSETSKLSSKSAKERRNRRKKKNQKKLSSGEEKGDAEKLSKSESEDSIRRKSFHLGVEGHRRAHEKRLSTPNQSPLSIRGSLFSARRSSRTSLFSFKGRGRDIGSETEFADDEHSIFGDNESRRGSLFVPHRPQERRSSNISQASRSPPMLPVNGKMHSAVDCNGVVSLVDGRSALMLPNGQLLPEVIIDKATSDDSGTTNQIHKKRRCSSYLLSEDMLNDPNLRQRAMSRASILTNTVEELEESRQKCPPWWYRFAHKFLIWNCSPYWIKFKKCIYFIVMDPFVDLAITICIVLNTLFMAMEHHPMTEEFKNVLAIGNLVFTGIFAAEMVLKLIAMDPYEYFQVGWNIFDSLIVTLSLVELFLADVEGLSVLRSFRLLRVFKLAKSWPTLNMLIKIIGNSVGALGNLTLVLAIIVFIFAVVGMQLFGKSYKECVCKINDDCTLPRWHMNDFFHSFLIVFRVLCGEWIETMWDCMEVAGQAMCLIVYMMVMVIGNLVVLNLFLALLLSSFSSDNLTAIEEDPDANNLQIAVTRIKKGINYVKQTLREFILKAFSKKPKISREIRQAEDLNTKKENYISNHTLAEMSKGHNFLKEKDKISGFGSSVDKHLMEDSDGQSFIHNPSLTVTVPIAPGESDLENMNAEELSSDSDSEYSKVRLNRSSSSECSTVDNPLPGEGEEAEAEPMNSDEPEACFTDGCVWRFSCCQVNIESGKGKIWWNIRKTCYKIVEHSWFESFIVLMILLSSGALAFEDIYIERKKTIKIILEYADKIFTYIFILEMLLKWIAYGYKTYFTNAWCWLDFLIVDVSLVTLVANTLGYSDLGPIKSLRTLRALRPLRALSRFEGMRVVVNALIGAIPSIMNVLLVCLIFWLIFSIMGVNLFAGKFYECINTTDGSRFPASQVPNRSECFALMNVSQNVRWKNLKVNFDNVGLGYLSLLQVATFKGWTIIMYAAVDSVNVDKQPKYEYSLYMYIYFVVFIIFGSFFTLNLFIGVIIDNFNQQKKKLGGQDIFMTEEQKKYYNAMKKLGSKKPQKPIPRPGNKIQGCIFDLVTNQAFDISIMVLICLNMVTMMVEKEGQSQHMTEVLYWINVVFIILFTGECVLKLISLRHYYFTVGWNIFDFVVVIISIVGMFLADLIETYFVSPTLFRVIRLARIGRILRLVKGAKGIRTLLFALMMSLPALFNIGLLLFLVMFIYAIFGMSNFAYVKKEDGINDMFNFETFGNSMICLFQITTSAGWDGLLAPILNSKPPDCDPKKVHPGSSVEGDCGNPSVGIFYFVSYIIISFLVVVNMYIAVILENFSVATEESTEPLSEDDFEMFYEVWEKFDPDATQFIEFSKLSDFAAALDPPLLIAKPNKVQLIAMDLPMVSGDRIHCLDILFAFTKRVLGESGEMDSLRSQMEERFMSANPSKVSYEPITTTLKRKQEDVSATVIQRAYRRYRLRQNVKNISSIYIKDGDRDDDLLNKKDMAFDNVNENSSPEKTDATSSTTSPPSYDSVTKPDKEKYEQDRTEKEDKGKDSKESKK

human NaV1.7 channel [2] = biological target: T1, human NaV1.7 channel; experiment: Whole-cell current-voltage (I-V) relationship, NaV1.7, standard solution; type: cell-based
Protocol: Data are expressed as mean ± SD.
Whole-cell current-voltage (I-V) recordings were recorded with an EPC 10 USB Heka patch clamp amplifier or an Axon 700B amplifier (Axon Instruments). Currents were filtered (−3 dB, 4-pole Bessel) at 2 kHz and sampled at 50 kHz. […] Leak subtraction was done using a p/4 protocol (4 pulses at a delay of 100 μs). Cell responses were accepted for analysis if the series resistance was ≤ 12 MΩ and was compensated for by ≥ 60%. […] The extracellular solution contained (in mM): 140 NaCl, 5 KCl, 1 MgCl2, 10 Hepes, and 10 D-glucose, adjusted to pH 7.4 with NaOH, whereas the intracellular solution contained (in mM) the following: 140 CsCl, 10 NaCl, 2 10 Hepes, and 5 EGTA adjusted to pH 7.4 with CsOH.
Whole-cell conductance (G) was calculated using the following relation.(1) G=I/(Vm−Vrev) Where, I is the peak current, Vm is the corresponding step voltage and Vrev is the reversal potential (potential where current direction changes).

## batrachotoxin
NaV channels; ref [15], [17], [18]
  Effect on NaV channels: direct channel activators (agonists)
NaV channels; ref [15], [17]
  Effect on ion selectivity: alter ion selectivity

## ProTx-II: tarantula toxin
NaV channels; ref [20], [21]
  Effect on NaV channels: inhibit NaV channel currents by stabilizing S4 helices in the resting state

## LAPIFALLLLSGLFSLPALQHYIAANYIN-NH2 [Ta3a[E24A + K25A]]
Human NaV1.7 channel [1]
  Efficacy (maximum response), I40ms/Ipeak: 0.35 ± 0.33
Human NaV1.7 channel [2]; 30 nM analog, n = 4 cells
  I-V profile versus control: indistinguishable from control
Human NaV1.7 channel [2]; 1 μM analog, n = 7 cells
  Leftward shift of V1/2: −4.5 mV
  Leftward shift of Vrev: −28 mV
  Reduction in peak current: ~2 fold

## huwentoxin-IV
NaV channels; ref [20], [21]
  Effect on NaV channels: inhibit NaV channel currents by stabilizing S4 helices in the resting state

## COc1ccc(C(=O)O[C@H]2CC[C@@]3(C)[C@@H]4CC[C@H]5[C@]6(O)C[C@H](O)[C@@]7(O)[C@@H](CN8C[C@@H](C)CC[C@H]8[C@@]7(C)O)[C@]6(O)C[C@@]53O[C@]24O)cc1OC [veratridine]
NaV channels; ref [15], [17], [18]
  Effect on NaV channels: direct channel activators (agonists)
